According to PubChem BioAssay AID328 (DTP/NCI, 2004):
“And” between values parts separate entries of the source, which are not always exact repeats. Equal values may be shown once. Toxic doses and inconclusive results are not listed. Rule for the calls: active = survival T/C of 150% or more; inactive = T/C below 125% in these data.

System: BDF1 mice, P388 leukemia ip, median survival T/C
Assay: NCI In Vivo Anticancer Drug Screen. Data for tumor model P388 Leukemia (intraperitoneal) in B6D2F1 (BDF1) mice
Conditions: endpoint: median survival time, higher = longer survival
Summary of the method: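 Read-out is survival of treated animals expressed relative to the vehicle group, as a T/C ratio.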

[1] = dose: 6.25 mg/kg/injection, schedule: Q01DX009 (ip), vehicle: saline
[2] = dose: 12.5 mg/kg/injection, schedule: Q01DX009 (ip), vehicle: saline
[3] = dose: 25.0 mg/kg/injection, schedule: Q01DX009 (ip), vehicle: saline
[4] = dose: 50.0 mg/kg/injection, schedule: Q01DX009 (ip), vehicle: saline
[5] = dose: 100.0 mg/kg/injection, schedule: Q01DX009 (ip), vehicle: saline
[6] = dose: 100.0 mg/kg/injection, schedule: Q04DX003 (ip), vehicle: saline
[7] = dose: 200.0 mg/kg/injection, schedule: Q04DX003 (ip), vehicle: saline
[8] = dose: 400.0 mg/kg/injection, schedule: Q04DX003 (ip), vehicle: saline
[9] = dose: 200.0 mg/kg/injection, schedule: Q01DX009 (ip), vehicle: saline
[10] = dose: 12.5 mg/kg/injection, schedule: Q01DX009 (ip), vehicle: saline with Tween-80
[11] = dose: 25.0 mg/kg/injection, schedule: Q01DX009 (ip), vehicle: saline with Tween-80
[12] = dose: 50.0 mg/kg/injection, schedule: Q01DX009 (ip), vehicle: saline with Tween-80
[13] = dose: 100.0 mg/kg/injection, schedule: Q01DX009 (ip), vehicle: saline with Tween-80
[14] = dose: 200.0 mg/kg/injection, schedule: Q01DX009 (ip), vehicle: saline with Tween-80

Measured: T/C

CN1CCC(C=C2c3ccccc3Sc3ccccc32)C1 (centres undefined)
inactive: [1] 99 % of control | [2] 95 % of control | [3] 100 % of control | [4] 101 % of control

C1CC[N-]CC1.C1CC[N-]CC1.C1CC[N-]CC1.C1CC[N-]CC1.N#C[S-].N#C[S-].[Ni]
inactive: dose: 5.0 mg/kg/injection, schedule: Q01DX009 (ip), vehicle: saline with Tween-80 100 % of control | dose: 10.0 mg/kg/injection, schedule: Q01DX009 (ip), vehicle: saline with Tween-80 100 % of control | dose: 20.0 mg/kg/injection, schedule: Q01DX009 (ip), vehicle: saline with Tween-80 108 % of control

O=C(O)/C=C/c1c[nH]c(=O)[nH]c1=O
inactive: dose: 25.0 mg/kg/injection, schedule: Q04DX003 (ip), vehicle: Klucel (hydroxypropylcellulose) (HPC) 101 % of control | dose: 50.0 mg/kg/injection, schedule: Q04DX003 (ip), vehicle: Klucel (hydroxypropylcellulose) (HPC) 101 % of control | dose: 100.0 mg/kg/injection, schedule: Q04DX003 (ip), vehicle: Klucel (hydroxypropylcellulose) (HPC) 115 % of control

CC1C[N+](C)=C2CCCCC2=C1N (centres undefined)
inactive: [1] 95 % of control | [2] 100 % of control | [3] 86 % of control

COc1cc2c(c(OC)c1OC)-c1ccc(N)c(=O)cc1[C@@H](NC(C)=O)CC2
inactive: dose: 0.5 mg/kg/injection, schedule: Q01DX010 (ip), vehicle: saline 113 % of control | dose: 2.0 mg/kg/injection, schedule: Q01DX010 (ip), vehicle: saline 118 % of control

COc1cc2ccncc2cc1OCc1ccccc1
inactive: dose: 6.25 mg/kg/injection, schedule: Q04DX003 (ip), vehicle: saline 100 % of control | dose: 12.5 mg/kg/injection, schedule: Q04DX003 (ip), vehicle: saline 100 % of control and 118 % of control | [3] 86 % of control | dose: 25.0 mg/kg/injection, schedule: Q04DX003 (ip), vehicle: saline 93 % of control and 103 % of control | [4] 92 % of control | dose: 50.0 mg/kg/injection, schedule: Q04DX003 (ip), vehicle: saline 98 % of control and 118 % of control | [5] 104 % of control | [6] 97 % of control and 100 % of control | [7] 93 % of control and 120 % of control | [8] 106 % of control

CN=C1N[N+]2=C(C)CSCC2(C)S1 (centres undefined)
inactive: [4] 100 % of control | [5] 100 % of control | [9] 97 % of control

C=CC[n+]1ccc(/C=N\NC(N)=S)c2ccccc21
inactive: [1] 111 % of control | [2] 101 % of control | [3] 106 % of control

CC1(c2ccc(Cl)s2)C(=O)N(Cl)C(=O)N1Cl (centres undefined)
inactive: dose: 6.25 mg/kg/injection, schedule: Q01DX009 (ip), vehicle: saline with Tween-80 112 % of control | [10] 103 % of control and 106 % of control | [11] 106 % of control and 110 % of control | dose: 25.0 mg/kg/injection, schedule: Q04DX003 (ip), vehicle: water 108 % of control | [12] 104 % of control and 120 % of control (2×) | dose: 50.0 mg/kg/injection, schedule: Q04DX003 (ip), vehicle: water 95 % of control | [13] 95 % of control and 115 % of control | dose: 100.0 mg/kg/injection, schedule: Q04DX003 (ip), vehicle: water 102 % of control

C=CC(=O)NCCCCC(N)C(=O)O (centres undefined)
inactive: [10] 108 % of control | [11] 106 % of control | [12] 113 % of control

O=c1[nH]cc[nH]1
inactive: [5] 95 % of control | [6] 100 % of control | [9] 114 % of control | [7] 108 % of control | dose: 264.0 mg/kg/injection, schedule: Q01DX009 (ip), vehicle: saline 122 % of control | dose: 400.0 mg/kg/injection, schedule: Q01DX009 (ip), vehicle: saline 122 % of control | [8] 104 % of control

CC(C)CCOC(=O)CN(CC(=O)OCCC(C)C)c1ccccc1
inactive: [13] 100 % of control | [14] 100 % of control | dose: 400.0 mg/kg/injection, schedule: Q01DX009 (ip), vehicle: saline with Tween-80 95 % of control

COc1cc2c(c(OC)c1OC)-c1ccc(O)cc1[C@@H](NC(C)=O)CC2
inactive: dose: 2.5 mg/kg/injection, schedule: Q01DX010 (ip), vehicle: water 86 % of control | dose: 5.0 mg/kg/injection, schedule: Q01DX010 (ip), vehicle: water 118 % of control | dose: 10.0 mg/kg/injection, schedule: Q01DX010 (ip), vehicle: water 109 % of control

O=C(c1ccccc1)C1CN(C2CCCCC2)C1c1ccccc1 (centres undefined)
inactive: [11] 102 % of control | [12] 90 % of control | [13] 102 % of control | [14] 100 % of control
